Assay results as given in US20250115600A1, “COVALENT MODIFIERS OF AKT1 AND USES THEREOF” (Terremoto Biosciences, Inc., priority 2022, published 2025).

Experiments:
Assay in all cases: Live cell target engagement (NanoBRET) in HEK293 cells
Assay type in all cases: cell-based
AKT1 E17K = AKT1 E17K (Homo sapiens (Human), UniProt P31749, E17K); conditions: for IC50: HEK293, 2 hours at 37° C.
AKT1 WT = AKT1 WT (Homo sapiens (Human), UniProt P31749); conditions: HEK293, 2 hours at 37° C.
AKT2 = AKT2 (Homo sapiens (Human), UniProt P31751); conditions: HEK293, 2 hours at 37° C.
Chain of AKT2 (P31751 whole entry): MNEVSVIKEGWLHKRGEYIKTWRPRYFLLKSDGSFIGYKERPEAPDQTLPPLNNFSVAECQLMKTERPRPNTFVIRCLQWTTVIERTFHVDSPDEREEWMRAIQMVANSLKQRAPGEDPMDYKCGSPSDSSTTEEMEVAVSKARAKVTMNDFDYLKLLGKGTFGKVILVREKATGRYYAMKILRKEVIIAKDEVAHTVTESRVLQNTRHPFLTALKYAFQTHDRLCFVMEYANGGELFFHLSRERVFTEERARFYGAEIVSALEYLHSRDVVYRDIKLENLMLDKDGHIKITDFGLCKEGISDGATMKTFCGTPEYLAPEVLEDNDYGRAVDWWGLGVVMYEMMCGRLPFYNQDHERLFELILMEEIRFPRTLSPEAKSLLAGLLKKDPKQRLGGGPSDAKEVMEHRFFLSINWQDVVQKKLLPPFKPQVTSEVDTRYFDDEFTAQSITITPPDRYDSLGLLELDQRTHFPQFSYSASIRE

Chain of AKT1 E17K (P31749 whole entry E17K): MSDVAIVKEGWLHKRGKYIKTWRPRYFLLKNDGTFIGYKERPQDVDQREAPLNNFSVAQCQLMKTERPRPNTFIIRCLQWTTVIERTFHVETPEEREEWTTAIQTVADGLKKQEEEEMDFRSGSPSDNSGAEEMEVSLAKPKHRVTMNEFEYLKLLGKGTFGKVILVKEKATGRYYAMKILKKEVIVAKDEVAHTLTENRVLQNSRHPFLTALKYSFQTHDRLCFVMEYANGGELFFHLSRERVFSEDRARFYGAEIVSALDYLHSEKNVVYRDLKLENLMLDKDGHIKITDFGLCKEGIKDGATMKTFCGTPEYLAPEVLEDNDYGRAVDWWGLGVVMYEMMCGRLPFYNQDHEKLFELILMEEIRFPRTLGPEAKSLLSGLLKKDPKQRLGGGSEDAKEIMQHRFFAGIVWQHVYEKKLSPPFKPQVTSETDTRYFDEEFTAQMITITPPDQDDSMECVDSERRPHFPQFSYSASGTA
Chain of AKT1 WT (P31749 whole entry): as the sequence (P31749 whole entry E17K) above, with K17E counted along it

Row | SMILES | AKT1 E17K IC50: Selectivity vs AKT1 WT (AKT1 E17K) | AKT1 E17K IC50: Selectivity vs AKT2 (AKT1 E17K) | IC50 (AKT1 E17K) | IC50 (AKT1 WT) | IC50 (AKT2)
1 | Nc1ncccc1-c1nc2cccnc2n1-c1ccc(CNC(=O)c2cc(C=O)c(O)cn2)cc1 [Compound 45, N-(4-(2-(2-aminopyridin-3-yl)-3H-imidazo[4,5-b]pyridin-3-yl)benzyl)-4-formyl-5-hydroxypicolinamide] | 2.7 | >7.7 | > 500 nM | > 500 nM | > 500 nM
2 | Nc1ncccc1-c1nc2ccc(-c3ccccc3)nc2n1-c1ccc(CNC(=O)c2cc(Br)c(O)c(C=O)c2)cc1 [Compound 50, N-({4-[2-(2-aminopyridin-3-yl)-5-phenylimidazo[4,5-b]pyridin-3-yl]phenyl}methyl)-3-bromo-5-formyl-4-hydroxybenzamide] | 2.1 | 32 | < 100 nM | < 100 nM | 100 to 500 nM
3 | CC(C)(O)C#Cc1ccc2nc(-c3cccnc3N)n(-c3ccc(CNC(=O)Cc4ccc(C=O)c(O)c4)cc3)c2n1 [Compound 51, N-(4-(2-(2-aminopyridin-3-yl)-5-(3-hydroxy-3-methylbut-1-yn-1-yl)-3H-imidazo[4,5-b]pyridin-3-yl)benzyl)-2-(4-formyl-3-hydroxyphenyl)acetamide] | 3.8 | 90 | < 100 nM | 100 to 500 nM | > 500 nM
4 | Nc1ncccc1-c1nc2ccc(-c3ccccc3F)nc2n1-c1ccc(CNC(=O)Cc2ccc(C=O)c(O)c2)cc1 [Compound 54, N-({4-[2-(2-aminopyridin-3-yl)-5-(2-fluorophenyl)imidazo[4,5-b]pyridin-3-yl]phenyl}methyl)-2-(4-formyl-3-hydroxyphenyl)acetamide] | 1.8 | 64 | < 100 nM | < 100 nM | 100 to 500 nM
5 | CN(CCc1ccc(C=O)c(O)c1)C(=O)c1ccc(-n2c(-c3cccnc3N)nc3ccc(-c4ccccc4)nc32)cc1 [Compound 57, 4-[2-(2-aminopyridin-3-yl)-5-phenylimidazo[4,5-b]pyridin-3-yl]-N-[2-(4-formyl-3-hydroxyphenyl)ethyl]-N-methylbenzamide] | 2.7 | 13 | 100 to 500 nM | 100 to 500 nM | > 500 nM
6 | CC(C)(C(=O)NCc1ccc(-n2c(-c3cccnc3N)nc3ccc(-c4ccccc4)nc32)cc1)c1ccc(C=O)c(O)c1 [Compound 60, N-({4-[2-(2-aminopyridin-3-yl)-5-phenylimidazo[4,5-b]pyridin-3-yl]phenyl}methyl)-2-(4-formyl-3-hydroxyphenyl)-2-methylpropanamide] | 8.2 | 45 | < 100 nM | 100 to 500 nM | > 500 nM
7 | Nc1ncccc1-c1nc2ccc(-c3ccccc3)nc2n1-c1ccc(CNC(=O)Cc2ccc(C=O)c(O)c2Cl)cc1 [Compound 63, N-({4-[2-(2-aminopyridin-3-yl)-5-phenylimidazo[4,5-b]pyridin-3-yl]phenyl}methyl)-2-(2-chloro-4-formyl-3-hydroxyphenyl)acetamide] | 1.2 | 8.3 | < 100 nM | < 100 nM | 100 to 500 nM
8 | Nc1ncccc1-c1nc2ccc(-c3ccccc3)nc2n1-c1ccc(CNC(=O)C(F)c2ccc(C=O)c(O)c2)cc1 (stereo not shown) [Compound 65, N-({4-[2-(2-aminopyridin-3-yl)-5-phenylimidazo[4,5-b]pyridin-3-yl]phenyl}methyl)-2-fluoro-2-(4-formyl-3-hydroxyphenyl)acetamide] | 1.2 | 37 | < 100 nM | < 100 nM | 100 to 500 nM
9 | Nc1ncccc1-c1nc2ccc(C3CC3)nc2n1-c1ccc(CNC(=O)Cc2ccc(C=O)c(O)c2)cc1 [Compound 66, N-({4-[2-(2-aminopyridin-3-yl)-5-cyclopropylimidazo[4,5-b]pyridin-3-yl]phenyl}methyl)-2-(4-formyl-3-hydroxyphenyl)acetamide] | 3.5 | 830 | < 100 nM | < 100 nM | > 500 nM
10 | Nc1ncccc1-c1nc2ccc(-c3cccnc3)nc2n1-c1ccc(CNC(=O)Cc2ccc(C=O)c(O)c2)cc1 [Compound 68, N-(4-(2-(2-aminopyridin-3-yl)-5-(pyridin-3-yl)-3H-imidazo[4,5-b]pyridin-3-yl)benzyl)-2-(4-formyl-3-hydroxyphenyl)acetamide] | 4 | 150 | < 100 nM | < 100 nM | > 500 nM
11 | Nc1ncccc1-c1nc2ccc(-c3ccccc3)nc2n1-c1ccc(CNC(=O)C2(c3ccc(C=O)c(O)c3)CC2)cc1 [Compound 69, N-({4-[2-(2-aminopyridin-3-yl)-5-phenylimidazo[4,5-b]pyridin-3-yl]phenyl}methyl)-1-(4-formyl-3-hydroxyphenyl)cyclopropane-1-carboxamide] | 16 | >160 | < 100 nM | > 500 nM | > 500 nM

Second part, the molecule after the results:

Row | AKT1 E17K IC50: Selectivity vs AKT1 WT (AKT1 E17K) | AKT1 E17K IC50: Selectivity vs AKT2 (AKT1 E17K) | IC50 (AKT1 E17K) | IC50 (AKT1 WT) | IC50 (AKT2) | SMILES
12 |  |  | > 500 nM | > 500 nM | > 500 nM | Nc1ncccc1-c1nc2cccnc2n1-c1ccc(CNC(=O)c2cnc(O)c(C=O)c2)cc1 [Compound 46, N-(4-(2-(2-aminopyridin-3-yl)-3H-imidazo[4,5-b]pyridin-3-yl)benzyl)-5-formyl-6-hydroxynicotinamide]
13 | 1.8 | 3.7 | > 500 nM | > 500 nM | > 500 nM | Nc1ncccc1-c1nc2cccnc2n1-c1ccc(CNC(=O)c2ccc(O)c(C=O)n2)cc1 [Compound 47, N-(4-(2-(2-aminopyridin-3-yl)-3H-imidazo[4,5-b]pyridin-3-yl)benzyl)-6-formyl-5-hydroxypicolinamide]
14 | 8.5 | 120 | < 100 nM | 100 to 500 nM | > 500 nM | Nc1ncccc1-c1nc2cccnc2n1-c1ccc(CNC(=O)Cc2ccc(C=O)c(NC(=O)C3CC3)c2)cc1 [Compound 48, N-(5-(2-((4-(2-(2-aminopyridin-3-yl)-3H-imidazo[4,5-b]pyridin-3-yl)benzyl)amino)-2-oxoethyl)-2-formylphenyl)cyclopropanecarboxamide]
15 | 0.93 | 6.8 | < 100 nM | < 100 nM | < 100 nM | Nc1ncccc1-c1nc2ccc(-c3cccc(N4CCOCC4)c3)nc2n1-c1ccc(CNC(=O)Cc2ccc(C=O)c(O)c2)cc1 [Compound 55, N-({4-[2-(2-aminopyridin-3-yl)-5-[3-(morpholin-4-yl)phenyl]imidazo[4,5-b]pyridin-3-yl]phenyl}methyl)-2-(4-formyl-3-hydroxyphenyl)acetamide]
16 | 5.7 | 39 | 100 to 500 nM | > 500 nM | > 500 nM | Nc1ncccc1-c1nc2ccc(-c3ccccc3)nc2n1-c1ccc(CNC(=O)C2(c3ccc(C=O)c(O)c3F)CC2)cc1 [Compound 59, N-(4-(2-(2-aminopyridin-3-yl)-5-phenyl-3H-imidazo[4,5-b]pyridin-3-yl)benzyl)-1-(2-fluoro-4-formyl-3-hydroxyphenyl)cyclopropane-1-carboxamide]
17 | 3 | 66 | < 100 nM | < 100 nM | > 500 nM | Nc1ncccc1-c1nc2ccc(-c3ccncc3)nc2n1-c1ccc(CNC(=O)Cc2ccc(C=O)c(O)c2)cc1 [Compound 61, N-({4-[2-(2-aminopyridin-3-yl)-5-(pyridin-4-yl)imidazo[4,5-b]pyridin-3-yl]phenyl}methyl)-2-(4-formyl-3-hydroxyphenyl)acetamide]
18 | 2.7 | 47 | < 100 nM | < 100 nM | > 500 nM | Nc1ncccc1-c1nc2ccc(-c3ccccn3)nc2n1-c1ccc(CNC(=O)Cc2ccc(C=O)c(O)c2)cc1 [Compound 62, N-({4-[2-(2-aminopyridin-3-yl)-5-(pyridin-2-yl)imidazo[4,5-b]pyridin-3-yl]phenyl}methyl)-2-(4-formyl-3-hydroxyphenyl)acetamide]
19 | 0.5 | 2 | < 100 nM | < 100 nM | 100 to 500 nM | CN(Cc1ccc(-n2c(-c3cccnc3N)nc3ccc(-c4ccccc4)nc32)cc1)C(=O)Cc1ccc(C=O)c(O)c1 [Compound 64, N-(4-(2-(2-aminopyridin-3-yl)-5-phenyl-3H-imidazo[4,5-b]pyridin-3-yl)benzyl)-2-(4-formyl-3-hydroxyphenyl)-N-methylacetamide]
20 | 27 | >240 | < 100 nM | > 500 nM | > 500 nM | Nc1ncccc1-c1nc2ccc(-c3cccnc3)nc2n1-c1ccc(CNC(=O)C2(c3ccc(C=O)c(O)c3F)CC2)cc1 [Compound 67, N-(4-(2-(2-aminopyridin-3-yl)-5-(pyridin-3-yl)-3H-imidazo[4,5-b]pyridin-3-yl)benzyl)-1-(2-fluoro-4-formyl-3-hydroxyphenyl)cyclopropane-1-carboxamide]
21 | 7.7 | 65 | < 100 nM | 100 to 500 nM | > 500 nM | Nc1ncccc1-c1nc2ccc(-c3cccnc3)nc2n1-c1ccc(CNC(=O)C2(c3ccc(C=O)c(O)c3)CC2)cc1 [Compound 70, N-({4-[2-(2-aminopyridin-3-yl)-5-(pyridin-3-yl)imidazo[4,5-b]pyridin-3-yl]phenyl}methyl)-1-(4-formyl-3-hydroxyphenyl)cyclopropane-1-carboxamide]
